Columns and labels:
Danio rerio embryo = assay: BMC10 any morphological effect or mortality at 120 hpf; higher = less toxic
Method: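 ZBEscreen: dechorionated Tropical 5D zebrafish embryos were exposed from 4 hpf in 96-well plates (1% DMSO, 28 °C). All compounds were first tested at 100 µM; hits were retested at 0.005-100 µM. Morphology and mortality were scored at 120 hpf and fitted as BMC10 (3-parameter log-logistic, extra risk). The embryonic photomotor response at 24 hpf and the larval photomotor response at 120 hpf are given as lowest effect levels (K-S test, p<0.01). NA = not significant up to 100 µM; NT = not tested.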

HL-60 = assay: Cell Health Index (toxicity pseudo-probability over dose series) (index 0-1); higher = more cytotoxic / cell stress;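 also: HL-60 cells exposed 4 h at 37 °C to ten threefold dilutions spanning 5 nM to 100 µM, multiparametric flow cytometry features scored by machine-learning classification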

| SMILES | BMC10 any morphological effect or mortality (Danio rerio embryo) [µM] | Cell Health Index (HL-60) |
| --- | --- | --- |
| CC(C)C1=C2[C@H]3CC[C@@H]4[C@@]5(C)CC[C@H](OC(=O)CC(C)(C)C(=O)O)C(C)(C)[C@@H]5CC[C@@]4(C)[C@]3(C)CC[C@@]2([C@@H](O)CN(CCN(C)C)Cc2ccc(Cl)cc2)CC1=O | > 100 | 0.422 |
| O=C(O)/C(S)=C/c1ccc(I)cc1 | > 100 | 0.32 |
| N#C[C@@]1(c2ccc3c(N)ncnn23)O[C@H](CO)[C@@H](O)[C@H]1O | > 100 | 0.185 |
| Nc1n[nH]c2nnc(-c3c(-c4ccccc4)nn4ccccc34)cc12 | > 100 | 0.299 |
| CCN(CC)Cc1ccc(C(=O)N(CCc2ccccc2OC)[C@@H]2CCNC2)cc1.Cl.Cl | > 100 | 0.318 |
| Nc1ccc(C(=O)Nc2cccc(-c3nc(N4CCOCC4)c4oc5ncccc5c4n3)c2)cn1 | > 100 | 0.615 |
| CCc1cccc(CC)c1NC(=O)N1Cc2[nH]nc(NC(=O)c3ccc(N4CCN(C)CC4)cc3)c2C1 | > 100 | 0.634 |
| O=C(c1ccccc1)c1ccc2nc(NC(=O)c3csc(C4CCN(c5ncnc6ccsc56)CC4)n3)[nH]c2c1 | > 100 | 0.507 |
| Cc1nnnn1/N=C\c1ccc(O)c(C(c2ccc(O)cc2)c2cc(/C=N/n3nnnc3C)ccc2O)c1 (stereo not drawn) | > 100 | 0.389 |
| O.Oc1cc(O)c2c(c1)O[C@H](c1ccc(O)c(O)c1)[C@@H](O)C2 (racemic) [(±)-Catechin] | > 100 | 0.804 |
| O=C(/C=C/c1ccc(O)c(O)c1)O[C@@H]1C[C@](OC(=O)/C=C/c2ccc(O)c(O)c2)(C(=O)O)C[C@@H](O)[C@H]1O [1,5-Dicaffeoylquinic acid] | > 100 | 0.569 |
| C[C@@]1(O)[C@H](O)[C@@H](CO)O[C@H]1n1cnc2c(N)ncnc21 [2'-C-Methyladenosine] | > 100 | 0.266 |
| O=C(O)c1ccc2nc(-c3ccccc3)c(-c3ccccc3)nc2c1 [2,3-diphenylquinoxaline-6-carboxylic acid] | > 100 | 0.217 |
| OC[C@H]1OC(O)C[C@@H](O)[C@@H]1O (stereo partly drawn) [2-deoxy-D-Glucose] | > 100 | 0.325 |
| O=c1c(-c2ccc(O)c(O)c2)coc2cc(O)ccc12 [3',4',7-Trihydroxyisoflavone] | > 100 | 0.478 |
| O=C(/C=C/c1ccc(O)c(O)c1)O[C@@H]1[C@H](O)C[C@@](O)(C(=O)O)C[C@H]1OC(=O)/C=C/c1ccc(O)c(O)c1 [3,4-Dicaffeoylquinic acid] | > 100 | 0.416 |
| O=C(/C=C/c1ccc(O)c(O)c1)O[C@@H]1C[C@](O)(C(=O)O)C[C@@H](OC(=O)/C=C/c2ccc(O)c(O)c2)[C@H]1O [3,5-Dicaffeoylquinic acid] | > 100 | 0.614 |
| Nc1nccc2c1ncn2[C@@H]1O[C@H](CO)[C@@H](O)[C@H]1O [3-Deazaadenosine] | > 100 | 0.318 |
| O=C(/C=C/c1ccc(O)c(O)c1)O[C@H]1[C@H](O)C[C@](O)(C(=O)O)C[C@H]1OC(=O)/C=C/c1ccc(O)c(O)c1 [4,5-Dicaffeoylquinic acid] | > 100 | 0.542 |
| C#Cc1cn([C@H]2C[C@H](O)[C@@H](CO)O2)c(=O)nc1N [5'-Ethynyl-2'-deoxycytidine] | > 100 | 0.13 |

| SMILES | BMC10 any morphological effect or mortality (Danio rerio embryo) [µM] | Cell Health Index (HL-60) |
| --- | --- | --- |
| Cl.NCC(=O)CCC(=O)O [5-Aminolevulinic acid] | > 100 | 0.194 |
| O=C(/C=C/c1ccc(O)c(O)c1)O[C@@H]1C[C@@](O)(C(=O)O)C[C@@H](O)[C@@H]1O [5-Caffeoylquinic acid] | > 100 | 0.295 |
| O=c1[nH]cc(F)c(=O)[nH]1 [5-Fluorouracil] | > 100 | 0.159 |
| O=c1[nH]c(=O)n([C@H]2C[C@H](O)[C@@H](CO)O2)cc1CO [5-Hydroxymethyl-2'-deoxyuridine] | > 100 | 0.178 |
| O=c1cc(-c2ccccc2)oc2c(O)c(O)ccc12 [7,8-Dihydroxyflavone] | > 100 | 0.507 |
| CCCOCCCCCCCCCC(=O)O [10-propoxy-Decanoic acid] | > 100 | 0.168 |
| O[C@H]1[C@@]2([H])[C@](CC[C@]2([H])[C@@](O)(C)CC/C=C(C)/C)(C)[C@]3(C)CC[C@]4([H])[C@@](CC[C@H](O[C@]5([H])O[C@H](CO)[C@@H](O)[C@H](O)[C@H]5O)C4(C)C)(C)[C@@]3([H])C1 [20(R)-Ginsenoside Rh2] | > 100 | 0.227 |
| O=C(O)CCCCCCCCCCCCCCCCCCCO [20-hydroxy Arachidic acid] | > 100 | 0.215 |
| CC1(C)[C@@H]2CC[C@@]1(C)C(=O)C2 [(1R)-(+)-Camphor] | > 100 | 0.135 |
| Oc1cc(O)c2c(c1)O[C@@H](c1ccc(O)c(O)c1)[C@H](O)C2 [(-)-Catechin] | > 100 | 0.201 |
| O=C(O[C@@H]1Cc2c(O)cc(O)cc2O[C@@H]1c1ccc(O)c(O)c1)c1cc(O)c(O)c(O)c1 [(-)-Epicatechin gallate] | > 100 | 0.807 |
| O=C(O[C@@H]1Cc2c(O)cc(O)cc2O[C@@H]1c1cc(O)c(O)c(O)c1)c1cc(O)c(O)c(O)c1 [(-)-Epigallocatechin gallate] | > 100 | 0.854 |
| Cl.c1ccc([C@H]2CN3CCSC3=N2)cc1 [(-)-Levamisole] | > 100 | 0.173 |
| Cl.NCCc1ccc(S(=O)(=O)F)cc1 [AEBSF] | > 100 | 0.32 |
| c1ccc(CNCc2ccc(CN3CCCNCCNCCCNCC3)cc2)nc1 [AMD 3465 parent] | > 100 | 0.232 |
| N=C(N)NCCC[C@H](NC(=O)c1ccc2ccccc2c1O)C(=O)N1CCC[C@H]1C(N)=O.O=C(O)C(F)(F)F [APC 366] | > 100 | 0.223 |
| Nc1nc(NC2CC2)c2ncn([C@H]3C=C[C@@H](CO)C3)c2n1.O=S(=O)(O)O [Abacavir] | > 100 | 0.116 |
| CC(=O)N[C@@H]([C@@H](O)[C@H](O)[C@H](O)CO)[C@@H](O)CC(=O)C(=O)O [Aceneuramic acid] | > 100 | 0.172 |
| Nc1nc2c(ncn2COCCO)c(=O)[nH]1 [Acyclovir] | > 100 | 0.214 |

From the supplement of paper PMC11821682
